Laboratory results reported in patent publication US20250179023A1, “HOLOSYMMETRIC BIPHENYL DERIVATIVE, AND PREPARATION METHOD THEREFOR AND USE THEREOF” (Abbisko Therapeutics Co., Ltd., priority 2022, published 2025).
pEC50, pIC50: −log10 of the molar value.

Key:
[1] = Pharmacokinetics in mice (exposure and oral availability); format: in vivo; settings: male, mouse, ICR mice; for bioavailability: PO (10 mpk) vs IV (2 mpk), read-out: Oral availability (F %)
Source text: (§1) The purpose of this study is to study the pharmacokinetic behaviors of some compounds of the present invention, and administration routes were: single per oral administration (PO) or intravenous injection (IV) to ICR mice or rats.
(§2) The compounds used in this test were compounds of specific examples of the present invention and the comparative compounds listed.
ICR mice male N=9 original source: Shanghai Sippr-BK Laboratory Animal Co. Ltd.
(§3) The compounds were each dissolved in a corresponding vehicle, mixed well by shaking and subjected to ultrasonic treatment to obtain colorless clear solutions. 9 mice and 3 rats were orally administered with the solution after fasting overnight. The mice were dosed at 10 mg/kg (or 2 mg/kg by IV) and the rats were dosed at 5 mg/kg (or 1 mg/kg by IV).
(§4) With about 90 μL/time point, blood was drawn from the submaxillary vein, and heparin sodium was added for anticoagulation. The blood samples were placed onto the ice and centrifuged (centrifugation conditions: 8000 rpm, 6 min, 2-8° C.) within 1 hr to isolate the plasmas. The time points for blood sampling were at 0 hrs, 0.25 hrs, 0.5 hrs, 1 hr, 2 hrs, 4 hrs, 6 hrs, 8 hrs and 24 hrs after administration. The samples were stored in a refrigerator at −20° C.
(§5) 40 μL of plasma sample was added to 160 μL of cold acetonitrile containing an internal standard, and the mixture was vortexed for 3 min and centrifuged at 11,000 rpm for 5 min. 100 μL of the supernate was added to 100 μL of water, and 5 μL of the mixed solution was loaded for LC-MS/MS analysis. For comparative compounds 1, 3, 5, the prodrug compounds and corresponding prototype compounds 2, 4, 6 were all analyzed, and specific analysis results are shown in Table 4.

[2] = Pharmacokinetics in rats (exposure and oral availability); format: in vivo; settings: male, ICR, rat; for bioavailability: PO (5 mpk) vs IV (1 mpk), read-out: Oral availability (F %)
Source text: as §1, §2
ICR rats male N=3 original source: Shanghai Sippr-BK Laboratory Animal Co. Ltd.
as §3, §4, §5

[3] = Caco-2 membrane permeability test; settings: human, Caco-2, pH 7.4
Experimental: (§6) The permeability and the efflux ratio of the compounds of the examples of the present invention and the comparative compounds were evaluated using a Caco-2 cell model in this experiment. The specific process was as follows: • 1) The Caco-2 cell culture medium was modified Eagle's medium (MEM) containing 10% inactivated fetal bovine serum and 1% nonessential amino acids.
(§7) Working solutions were obtained by diluting with Hank's balanced salt solution (HBSS, Invitrogen) containing 25 mM HEPES (pH 7.4). The detection concentration of the test compound was 10 μM. This study was a two-way permeation experiment from the apical side to the basolateral side (A−B) and from the basolateral side to the apical side (B−A), and a 90-minute incubation at 37° C. was required. After the incubation, the samples diluted with buffer were detected by LC-MS/MS. The concentrations of the compounds were quantified using a standard curve. • 4) Apparent permeability coefficient Papp value (cm/s):

Caco-2 cells [4] = assay: Caco-2 membrane permeability test; settings: Caco-2, summary of Table 2
Experimental: as §6, §7

PD-1/PD-L1 interaction = PD-1/PD-L1 interaction (Homo sapiens (Human), UniProt Q9NZQ7); assay: PD1-PDL1 HTRF binding activity test; settings: Cisbio PD-1/PD-L1 binding assay kit
Experimental: The effect of compounds of the examples of the present invention on the PD-1/PD-L1 interaction was determined by the PD-1/PD-L1 binding assay kit from Cisbio (#64ICP01PEG or 64ICP01PEH).

[5] = biological target: PD-1/PD-L1 interaction (Jurkat/NF-κB-luc/PD1 cells cocultured with Raji-PD-L1 cells) (Homo sapiens (Human), UniProt Q9NZQ7); assay: Jurkat reporter gene cellular assay; format: cell-based; settings: NF-κB-luc reporter activation fold, OKT3 1 μg/mL, 6 hrs; read-out: Cell activity EC50
Experimental: The effect of compounds of the examples of the present invention on the PD-1/PD-L1 interaction expressed on cell surfaces and the related influence on T cell functions were determined by a Jurkat reporter gene cellular assay. Briefly, the reporter gene plasmid of NF-κB-luc and the plasmid of human PD-1 were transfected into Jurkat cells to establish a stably transfected cell line capable of stably expressing both PD-1 and NF-κB-Luc reporter genes; the expression level of PD-1 on the cell surface was confirmed by flow cytometry; and the expression of the reporter gene was confirmed via the response of the reporter gene stimulated by OKT-3 and Raji cells.
In addition, the plasmid of human PD-L1 was transfected into Raji cells to obtain a cell line capable of stably expressing PD-L1. Jurkat/NF-κB-luc/PD1 cells and Raji-PD-L1 cells were then cocultured and stimulated with OKT-3. On this basis, the compounds were added, and the enhancement of the signal pathway of T cell activation by the inhibitory effect of the compounds on the PD-1/PD-L1 interaction was evaluated by readings of reporter gene responses.

Caco-2 cells [6] = tested on: Caco-2 cells
Experimental: as §6, §7

in vitro = settings: human, Caco-2, pH 7.4
Experimental: as §6, §7

[7] = 10 mg/kg, PO (10 mpk), dosed compound detected in plasma
[8] = 5 mg/kg, PO (5 mpk), dosed compound detected in plasma

Chain of PD-1/PD-L1 interaction (Jurkat/NF-κB-luc/PD1 cells cocultured with Raji-PD-L1 cells) (Q9NZQ7 19-290): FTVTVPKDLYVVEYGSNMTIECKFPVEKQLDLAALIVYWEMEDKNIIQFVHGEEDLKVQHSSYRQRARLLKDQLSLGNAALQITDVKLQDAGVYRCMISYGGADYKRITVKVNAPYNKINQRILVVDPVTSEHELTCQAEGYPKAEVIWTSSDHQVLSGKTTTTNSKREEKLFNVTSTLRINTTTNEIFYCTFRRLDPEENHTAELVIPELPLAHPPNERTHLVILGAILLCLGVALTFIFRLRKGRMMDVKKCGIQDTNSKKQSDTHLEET
Chain of PD-1/PD-L1 interaction (Q9NZQ7 19-238): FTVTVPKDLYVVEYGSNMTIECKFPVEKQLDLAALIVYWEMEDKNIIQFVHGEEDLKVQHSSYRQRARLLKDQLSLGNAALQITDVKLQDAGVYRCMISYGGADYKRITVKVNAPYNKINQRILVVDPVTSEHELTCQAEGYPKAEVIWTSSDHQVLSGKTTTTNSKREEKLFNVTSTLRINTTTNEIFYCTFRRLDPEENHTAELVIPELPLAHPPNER

| Structure (SMILES) | bioavailability ([1]; plasma, 10 mg/kg) [%] | Papp A→B at 90 min, 10 μM [3] [×10⁻⁶ cm/s] | Papp B→A at 90 min, 10 μM [3] [×10⁻⁶ cm/s] | efflux ratio at 90 min, 10 μM [3] | pIC50 (PD-1/PD-L1 interaction) | pEC50 [5] | Cmax [1, 7] [ng/mL] | also measured |
| --- | --- | --- | --- | --- | --- | --- | --- | --- |
| Cc1c(NC(=O)c2cc(C3CC3)c(CN[C@H](CO)C(=O)O)cn2)cccc1-c1cccc(NC(=O)c2cc(C3CC3)c(CN[C@H](CO)C(=O)O)cn2)c1C [compound 2, reference compound] | 0 | 0.67 | 0.36 | 0.53 | – | – | – | AUC(0-t) ([1]; plasma, 2 mg/kg, IV (2 mpk)): 2360 ng·h/mL; Cmax ([1]; plasma, 2 mg/kg, IV (2 mpk)): 5640 ng/mL; AUC(0-t) ([2]; plasma, 1 mg/kg, IV (1 mpk)): 7640 ng·h/mL; Cmax ([2]; plasma, 1 mg/kg, IV (1 mpk)): 13200 ng/mL; A−B membrane permeability (in words) (Caco-2 cells [4]): poor membrane permeability |
| Cc1c(NC(=O)c2cc(C3CC3)c(CNC34CCC(C(=O)O)(CC3)C4)cn2)cccc1-c1cccc(NC(=O)c2cc(C3CC3)c(CNC34CCC(C(=O)O)(CC3)C4)cn2)c1C [Example 2, 4,4′-((((((2,2′-dimethyl-[1,1′-biphenyl]-3,3′-diyl)bis(azanediyl))bis(carbonyl))bis (4-cyclopropylpyridine-6,3-diyl))bis(methylene))bis(azanediyl))bis(bicyclo[2.2.1]heptane-1-carboxylic acid)] | – | – | – | – | 8.44 | 6.82 | – | – |
| Cc1c(NC(=O)c2cc(C3CC3)c(CNCC(=O)O)cn2)cccc1-c1cccc(NC(=O)c2cc(C3CC3)c(CNCC(=O)O)cn2)c1C [compound 4] | – | < 0.24 | 0.98 | – | – | – | – | A−B membrane permeability (in words) (Caco-2 cells [4]): poor membrane permeability |
| COCCc1ccc(OCC(O)CNC(C)C)cc1 (centres unmarked) [Metoprolol, metoprolol] | – | – | – | – | – | – | – | Evaluation of permeability (Caco-2 cells [6]): High; Papp A→B at 90 min, 10 μM (in vitro): 24.7 ×10⁻⁶ cm/s; Papp B→A at 90 min, 10 μM (in vitro): 31.1 ×10⁻⁶ cm/s; efflux ratio at 90 min (in vitro): 1.26 |
| Cc1c(NC(=O)c2cc(C3CC3)c(CNCC34CCC(C(=O)O)(CC3)C4)cn2)cccc1-c1cccc(NC(=O)c2cc(C3CC3)c(CNCC34CCC(C(=O)O)(CC3)C4)cn2)c1C [Example 4, 4,4′-(((((((2,2′-dimethyl-[1,1′-biphenyl]-3,3′-diyl)bis(azanediyl))bis(carbonyl))bis(4-cyclopropylpyridine-6,3-diyl))bis(methylene))bis(azanediyl))bis(methylene))bis(bicyclo[2.2.1]heptane-1-carboxylic acid)] | 57.5 | 9.79 | 21.7 | 2.21 | 8.84 | 6.61 | 4550 | AUC(0-t) [1, 7]: 17600 ng·h/mL; AUC(0-t) ([1]; plasma, 2 mg/kg, IV (2 mpk)): 6110 ng·h/mL; Cmax ([1]; plasma, 2 mg/kg, IV (2 mpk)): 3520 ng/mL; AUC(0-t) [2, 8]: 4840 ng·h/mL; Cmax [2, 8]: 1980 ng/mL; AUC(0-t) ([2]; plasma, 1 mg/kg, IV (1 mpk)): 2200 ng·h/mL; Cmax ([2]; plasma, 1 mg/kg, IV (1 mpk)): 1860 ng/mL; bioavailability ([2]; plasma, 5 mg/kg): 44% |
| CCOC(=O)CNCc1cnc(C(=O)Nc2cccc(-c3cccc(NC(=O)c4cc(C5CC5)c(CNCC(=O)OCC)cn4)c3C)c2C)cc1C1CC1 [compound 3, reference compound] | 0 | – | – | – | – | – | – | – |
| Cc1c(NC(=O)c2cc(C3CC3)c(CNC34CCC(C(=O)O)(CC3)CC4)cn2)cccc1-c1cccc(NC(=O)c2cc(C3CC3)c(CNC34CCC(C(=O)O)(CC3)CC4)cn2)c1C [Example 1, 4-(((6-((3′-(5-(((4-carboxybicyclo[2.2.2]octan-1-yl)amino)methyl) -4-cyclopropylpicolinamido)-2,2′-dimethyl-[1,1′-biphenyl]-3-yl)carbamoyl)-4-cyclopropylpyridin-3-yl)methyl)amino)bicyclo[2.2.2]octane-1-carboxylic acid] | 19.5 | 2.46 | 16.5 | 6.75 | 8.59 | 6.87 | 1910 | AUC(0-t) [1, 7]: 8790 ng·h/mL; AUC(0-t) ([1]; plasma, 2 mg/kg, IV (2 mpk)): 9000 ng·h/mL; Cmax ([1]; plasma, 2 mg/kg, IV (2 mpk)): 4000 ng/mL; AUC(0-t) [2, 8]: 2220 ng·h/mL; Cmax [2, 8]: 426 ng/mL; AUC(0-t) ([2]; plasma, 1 mg/kg, IV (1 mpk)): 2350 ng·h/mL; Cmax ([2]; plasma, 1 mg/kg, IV (1 mpk)): 3540 ng/mL; bioavailability ([2]; plasma, 5 mg/kg): 18.9% |
| Cc1c(NC(=O)c2cc(C3CC3)c(CN3CC[C@H](C(=O)O)C3)cn2)cccc1-c1cccc(NC(=O)c2cc(C3CC3)c(CN3CC[C@H](C(=O)O)C3)cn2)c1C [compound 6] | – | 0.34 | 5.51 | 16.3 | – | – | 46.2 | AUC(0-t) [1, 7]: 147 ng·h/mL; A−B membrane permeability (in words) (Caco-2 cells [4]): poor membrane permeability |
| CC[C@H]1OC(=O)[C@H](C)[C@@H](O[C@H]2C[C@@](C)(OC)[C@@H](O)[C@H](C)O2)[C@H](C)[C@@H](O[C@@H]2O[C@H](C)C[C@H](N(C)C)[C@H]2O)[C@](C)(O)C[C@@H](C)C(=O)[C@H](C)[C@@H](O)[C@]1(C)O [Erythromycin, erythromycin] | – | – | – | – | – | – | – | Evaluation of permeability (Caco-2 cells [6]): High efflux; Papp A→B at 90 min, 10 μM (in vitro): 0.2 ×10⁻⁶ cm/s; Papp B→A at 90 min, 10 μM (in vitro): 21.6 ×10⁻⁶ cm/s; efflux ratio at 90 min (in vitro): 107 |

Second part, led by results:

| bioavailability ([1]; plasma, 10 mg/kg) [%] | Papp A→B at 90 min, 10 μM [3] [×10⁻⁶ cm/s] | Papp B→A at 90 min, 10 μM [3] [×10⁻⁶ cm/s] | efflux ratio at 90 min, 10 μM [3] | pIC50 (PD-1/PD-L1 interaction) | pEC50 [5] | Cmax [1, 7] [ng/mL] | Structure (SMILES) | also measured |
| --- | --- | --- | --- | --- | --- | --- | --- | --- |
| 0 | < 2.28 | < 1.85 | – | – | – | – | COC(=O)[C@@H](CO)NCc1cnc(C(=O)Nc2cccc(-c3cccc(NC(=O)c4cc(C5CC5)c(CN[C@H](CO)C(=O)OC)cn4)c3C)c2C)cc1C1CC1 [compound 1, reference compound] | bioavailability ([2]; plasma, 5 mg/kg): 0% |
| – | < 1.79 | < 0.65 | – | – | – | 30.4 | COC(=O)[C@H]1CCN(Cc2cnc(C(=O)Nc3cccc(-c4cccc(NC(=O)c5cc(C6CC6)c(CN6CC[C@H](C(=O)OC)C6)cn5)c4C)c3C)cc2C2CC2)C1 [compound 5] | – |
| – | – | – | – | 8.34 | 5.86 | – | Cc1c(NC(=O)c2cc(C3CC3)c(CN(C)C34CCC(C(=O)O)(CC3)C4)cn2)cccc1-c1cccc(NC(=O)c2cc(C3CC3)c(CN(C)C34CCC(C(=O)O)(CC3)C4)cn2)c1C [Example 3, 4,4′-((((((2,2′-dimethyl-[1,1′-biphenyl]-3,3′-diyl)bis(azanediyl))bis(carbonyl))bis(4-cyclopropylpyridine-6,3-diyl))bis(methylene))bis(methylazanediyl))bis(bicyclo[2.2.1]heptane-1-carboxylic acid)] | – |
